Measurements from patent publication US9566265B2, “Carbazole compounds and therapeutic uses of the compounds” (Incuron, LLC, priority 2008, dated 2017).
Read-outs that look alike come from different tables or passages of the source.

What was measured:
[1] = tested on: p53; assay: p53 activation assay, p53 responsive luciferase reporter cell line; format: cell-based, human; settings: for EC50: Homo sapiens
Method: The potency of a present carbazole compound is determined by measuring an ability of the compound to inhibit NF-κB activity or to activate p53. […] Theoretically, such assays of the dose-response effect of activator compounds can be described as a sigmoidal curve expressing a degree of activation as a function of concentration. The curve also theoretically passes through a point at which the concentration is sufficient to increase activity to a level that is 50% that of the difference between a baseline and the maximal activity in the assay. […] Determination of an EC50 value is made using conventional biochemical (acellular) assay techniques or cell-based assay techniques.
The potency of a carbazole compound is determined by measuring an ability of the compound to activate p53.
The p53 activation assay for determination of the EC50 value was performed as follows:
HT1080-L (human fibrosarcoma cells with ConALuc reporter)
RCC45ConALuc (human renal cell carcinoma cell line with ConALuc reporter)
1. Two types of standard cells were used, either HT1080-L or RCC45ConALuc cells. Both cell lines stably express a p53 responsive luciferase reporter construct.
2. HT1080-L cells were grown in DMEM medium containing 10% FBS. RCC45ConALuc cells were grown in RPMI medium containing 10% FBS (Pen/Strep can be added to a final concentration of 1%, if desired). Both cell lines were grown in a humidified incubator at 37° C. with 5% CO2. For normal culturing, both cell lines were split using 1× trypsin-EDTA at a ratio of 1:20 for HT1080-L and 1:5 for RCC45ConALuc cells every 3-4 days (when cells are 80-90% confluent).
3. A day before the experiment, the cells are trypsinized for about 5 minutes in 1× tripsin/EDTA solution in 37° C. incubator and plated in 96 well plates. HT1080-L cells were seeded at a density of 1×10^4/well in standard DMEM medium in a volume of 50 μl. RCC45ConALuc were seeded at a density of 2×10^4/well in the volume of 50 uL in standard RPMI medium.
4. The next day, various carbazole compounds were prepared by dilution of stock solutions in standard DMEM medium such that the cells were treated with the final chemical concentrations in Table 1 below. Stock solutions were made up in DMSO. Typically, chemicals were made up as 20 mM stock solutions.
5. Each tested compound used two rows of a 96-well plate, thus four compounds (e.g., W, X, Y, Z) were tested in one plate simultaneously. In addition to test compounds, each plate included positive and negative controls. As positive control, 9aa was used at a dose of 3 μM. As a negative control, DMSO was used in final concentration 0.1%.
1. Dilutions of chemicals added to the plate were made up as 2× concentrations in standard DMEM and added to corresponding well in a volume of 50 μl.
2. Chemicals were diluted in standard DMEM by two time serial dilutions starting from 40 μM (2× of highest concentration, e.g., 20 μM). For one cell line, the minimum volume was 125 μL of 2× working solution of chemical of each concentration in standard DMEM.
4. Sixteen hours following compound addition, all wells with the highest concentrations of compounds are checked microscopically for the presence of toxic effect, because death of cells caused by compounds may not allow detecting luciferase activity. If cytotoxocity is evident, other doses of the same compounds were checked for the presence of toxicity. The lowest dose causing toxic effect was recorded.
5. After microscopic examination, 15 μl of Bright Glo luciferase assay system were added to each well and after 5 min incubation at RT, the plates were read on a 96 well plate luminometer with a measurement time of 0.1 sec. A shaking step was included before measurement.
6. The folds of luciferase activation for each concentration of each chemical were calculated by dividing the detected luciferase activity at each chemical concentration by the average of the luciferase activity for the DMSO control on the same plate.

[2] = tested on: Plasmodium falciparum (strain D10); assay: Plasmodium falciparum in vitro culture, infected erythrocytes; format: cell-based; settings: tested at 29, 57, 143 nM or 143 nM only; FIG. 12
Method: In particular, the effect of carbazole compounds on the malaria parasite was tested by culturing Plasmodium falciparum (strain D10) in vitro in the presence or absence of test compounds.
In each experiment, 1000 erythrocytes were assessed microscopically to determine the number of infected cells.

[3] = tested on: γH2AX; assay: γH2AX staining (Table I); format: cell-based
[4] = Ames test
[5] = tested on: Chk1/2; assay: Chk1/2 phosphorylation (Table I); format: cell-based
[6] = tested on: ATM/ATR; assay: ATM/ATR activation (Table I); format: cell-based
[7] = tested on: Topo II; assay: Topo II inhibition in vitro (Table I); format: biochemical
[8] = tested on: Caki1 human renal cell carcinoma cells; assay: Caki1 renal cell carcinoma xenograft efficacy test
Method: In an efficacy test using these three compounds, athymic nude mice were inoculated subcutaneously with a suspension of Caki1 human renal cell carcinoma cells into both rear flanks. When at least one tumor in a mouse reached 20-50 mm^3, treatment was commenced. […] As a positive control, one group was treated with 40 mg/kg Sunitinib, an approved drug for the treatment of renal cell carcinoma. Treatment was given for 4 weeks on a 5 day on/2 day off schedule. After treatment was completed, mice were monitored for an additional 4 weeks to determine how quickly tumor growth returned to normal.

[9] = tested on: Bacillus subtilis; assay: antibacterial cytotoxicity assay, gram(+) bacteria (OD600); format: cell-based; settings: B. subtilis, 48 hours, over a range of potencies; FIG. 13B
Method: In vitro test to evaluate the effect of carbazole compounds on gram(-) and gram(+) bacteria. Two days prior to the start of the cytotoxicity assay, inoculate DH5-α and B. subtilis into 1 ml of corresponding media from glycerol stocks. Allow to grow during the course of the day at 37° C. with shaking. Streak each bacteria on the appropriate agar plates using a sterile inoculation loop and allow to grow overnight at 37° C. in the bacteria incubator. Using a sterile inoculation loop, pick a single colony of bacteria and inoculate 5 ml of the corresponding media in a 14 ml snap cap tube. Grow overnight ( 16 h) at 37° C. with shaking. […] Dilute 5 ml cultures of DH5-α and B. subtilis to an OD600 nm of 0.002, which corresponds to about 2×10^6 cells/ml in a volume sufficient for the experiment (dependent on the number of plates). Plate out 50 μl into each well of X 96-well plates (X=# plates needed for a given experiment). […] Chemicals for testing are prepared by dilution of stock solutions in LB Broth or Nutrient Broth for DH5-α and B. subtilis studies, respectively. Cells are treated with the final chemical concentrations presented in the scheme below (Table 2). Stock solutions are made up in DMSO. […] However, this concentration is dependent on the solubility of a given chemical and actual stock concentrations must be noted at time of experiment. Each library chemical to be tested requires 2 rows of a 96-well plate, thus 4 chemicals ([…]) can be tested in one plate simultaneously. In addition to test chemicals, each plate should include positive and negative controls. As positive control, ampicillin is used at 100 μg/ml. […] Dilutions of chemicals to be added to the plate are made up as 2× concentrations in appropriate bacteria media and added to corresponding wells in a volume of 50 μl. […] This process is repeated until all 10 2× doses are prepared. […] Following the addition of carbazole compounds to 96-well plates containing bacteria, plates are transferred to the 37° C. bacteria incubator for 48 hours. After the incubation, the OD600 mm for each well of the 96-well plates will be measured. […] The % DMSO control is plotted vs compound concentration to generate sigmoid shaped curves. After three runs are complete, the raw data for all three runs is used for IC50 calculations.

[10] = in vivo; settings: nude, mouse, po
Method: Drug doses and schedule. […] Treatment was initiated 7 days after tumor transplantation when the tumors reached 150-200 mg. The mice in the control group received the vehicle (0.2% hydroxypropylmethylcellulose) at 200 μl per 20 g mouse body weight (same as the treatment groups). Five mice were used for each experimental group with 10 tumors (1 tumor each in the left and right side flanks).
Maximum Tolerated Dose (MTD) and toxicity evaluation. […] The kinetics of drug-induced toxicities (body weight loss, diarrhea, and lethality) were determined daily for the first 10 days after treatment and every two days thereafter.

[11] = tested on: HB 101 E. coli; assay: antibacterial cytotoxicity assay, gram(−) bacteria (OD600); format: cell-based; settings: 48 hours, over a range of potencies, FIG. 13A
[12] = tested on: HCT-116, DLD1, Caki1 and MDA-MB-231 tumors; assay: various human tumour xenografts sc; format: in vivo, nude or SCID mice; settings: tumor cells inoculated as a cell suspension
Method: (§1) In this study, the antitumor effect and toxicity of the three carbazoles against HCT-8 and HT29 colon cancer tumors were compared with treatment beginning when the tumor size reached 150-200 mg (about 7 days after tumor transplantation).

[13] = tested on: human HCT-8 ileocecal adenocarcinoma xenografts
Method: as §1
(§2) Eight to twelve-week-old female athymic nude mice (nu/nu, body weight 22-25 g) were obtained from Harlan Sprague Dawley Inc. (Indianapolis, Ind.) and maintained at five mice/cage with water and food ad libitum according to an institutionally approved animal protocol.
(§3) Human ileocecal adenocarcinoma HCT-8 and colon adenocarcinoma HT-29 xenografts were used. The xenografts were initially established by injecting s.c 10^6 cultured cells and tumors were passed several generations by transplanting about 50 mg non-necrotic tumor (2-3 pieces) via a trocar from the passage tumors when the tumors reach to 1-1.5 g.
(§4) Treatment was initiated 7 days after tumor transplantation when the tumors reached 150-200 mg. The mice in the control group received the vehicle (0.2% hydroxypropylmethylcellulose) at 200 μl per 20 g mouse body weight (same as the treatment groups). Five mice were used for each experimental group with 10 tumors (1 tumor each in the left and right side flanks).
(§5) Two axes (mm) of tumor (L, longest axis; W, shortest axis) were measured with the aid of a Vernier caliper. Tumor weight (mg) was estimated using a formula: tumor weight=½ (L×W2). Tumor measurements were taken daily at the same time as drug treatment and 3-4 times a week of post therapy.
(§6) The kinetics of drug-induced toxicities (body weight loss, diarrhea, and lethality) were determined daily for the first 10 days after treatment and every two days thereafter.
(§7) Antitumor activity was assessed by maximum tumor growth inhibition (MTRI) which is the mean tumor weight of treated group (MTWTG) compared with untreated control group (MTWCG) at the same time point (MTRI=MTWTG−MTWCG)÷MTWCG×100%). The tumor doubling time (TDT) was defined as the mean time for the tumor to reach twice its initial weight. Tumor response was expressed as partial tumor response (PR) when tumor weight was reduced at least 50% of the initial tumor size and complete tumor response (CR) was defined as the inability to detect tumor upon palpation at the initial site of tumor appearance.

[14] = tested on: human HT-29 colon adenocarcinoma xenografts
Method: as §1, §2, §3, §4, §5, §6, §7

[15] = tested on: Bloodstream T. brucei; assay: T. brucei bloodstream form in vitro killing; format: cell-based, Trypanosoma brucei
Method: Preliminary T. brucei inactivation experiments were performed in vitro. The life cycle of T. brucei involves a “procyclic” developmental stage in a tsetse fly, and a “bloodstream” form in humans. All studies were performed with the bloodstream stage of the parasite, because it is the disease-causing developmental stage.
Suramin, a conventional anti-HAT drug, was used as a positive control.
Bloodstream T. brucei was seeded (3×10^3 cells/mL) in 24-well (500 uL of the media per well) plate. […] Control cultures received equal volumes of DMSO.

[16] = tested on: bacteria; assay: antibacterial cytotoxicity assay, comparison with ampicillin control; format: cell-based
Method: In particular, the effect of carbazole compounds of the present invention on gram positive (Bacillus subtilis) and gram negative (DH5-α) bacteria was determined by the following procedure, and is summarized in FIGS. 13A and 13B.
Each library chemical to be tested requires 2 rows of a 96-well plate, thus 4 chemicals (e.g. W, X, Y, Z) can be tested in one plate simultaneously. In addition to test chemicals, each plate should include positive and negative controls. As positive control, ampicillin is used at 100 μg/ml. As a negative control, DMSO is used in an amount equal to the highest volume of test compound used (˜0.25% DMSO for 50 μM).
Besides a positive control added in one concentration on each plate, the positive control of ampicillin is added to each assay run in a full concentration range (3 fold dilutions) to ensure proper and robust assay performance (estimated by comparison of dose response curves among runs).
The average OD600 nm of the test compound solutions are compared to that of the DMSO control by dividing the average OD600 nm of the test solution by that of the DMSO control and multiplying by 100 to produce the % DMSO control (i.e. % cytotoxicity). The % DMSO control is plotted vs compound concentration to generate sigmoid shaped curves. After three runs are complete, the raw data for all three runs is used for IC50 calculations.

[17] = 16 h, HT1080-L or RCC45ConALuc reporter cells, 16 h, read-out: EC50 value (p53 activation)
[18] = p.o. at MTD, 5 days on/2 days off per week, Example 15 5, Example 7 30, Example 13 25 mg/kg/d

CC(=O)c1ccc2c(c1)c1cc(C(C)=O)ccc1n2CCC1CCCN1C (stereo not drawn) [Example 2, 1,1′-{9-[2-(1-Methylpyrrolidin-2-yl)ethyl]-9H-carbazole-3,6-diyl}diethanone]
EC50 ([1]; read-out: EC50, μM (p53 activation assay)): 0.64 µM
EC50 ([1]; HT1080-L or RCC45ConALuc reporter cells, 16 h, read-out: EC50 value (p53 activation)): 0.64 µM
p53 activation, active or inactive carbazole ([1]; structural analysis, FIGS. 6 and 7): active
anti-malarial activity, parasitemia reduction [2]: anti-malarial activity comparable to quinacrine

CCN(CC)CCn1c2ccc3c(c2c2c4c(ccc21)C(=O)CC4)CCC3=O.Cl [Example 3, 6-[2-(Diethylamino)ethyl]-10,11-dihydro-1H-dicyclopenta[c,g]carbazole-3,9(2H,6H)-dione hydrochloride]
γH2AX staining [3]: no
Ames test [4]: negative
Chk1/2 phospho [5]: no
ATM/ATR activation [6]: no
Topo II inhibition in vitro [7]: ligation

CCCNCCCn1c2ccc(C(C)=O)cc2c2c3c(ccc21)C(=O)CC3 [Example 13]
tumor growth inhibition compared to the vehicle control ([8]; Day 24 (end of treatment), oral gavage 5 day on/2 day off, Example 7 30, Example 15 5, Example 13 25, Sunitinib 40 mg/kg): 62%
side effects ([8]; oral, 4 weeks 5 day on/2 day off): severest side effects
antibacterial effect [9]: antibacterial effect
MTD at 4 weeks [10]: 25 mg/kg/day
EC50 [1, 17]: 0.22 µM
antibacterial effect [11]: antibacterial effect
antitumor efficacy [12]: antitumor efficacy
Toxicity (%) MWL ([13]; mouse, in vivo): 8.5 ± 2.9%
Antitumor Activity MTGI (%) [13, 18]: 35.7 ± 20.0%
Toxicity (%) lethality ([13]; same): 0%
CR (%) ([13]; same, complete tumor response): 0%
PR (%) ([13]; same, partial tumor response): 0%
Antitumor Activity TDT ([13]; same, tumor doubling time): 5.6 ± 1.2 days
delay of tumor growth compared to the vehicle control (double time 4.8 days) ([13]; text b677): 17%
delay of tumor growth (control double time 7.8 days) [14]: 50%
inhibitory rate / tumor growth inhibition [14]: 48%
Antitumor Activity MTGI (%) [14, 18]: 47.6 ± 6.7%
Toxicity (%) lethality ([14]; same): 0%
CR (%) ([14]; same, complete tumor response): 0%
Toxicity (%) MWL ([14]; same, maximum weight loss of pretreatment body weight): 4.4 ± 2.2%
PR (%) ([14]; same, partial tumor response): 0%
Antitumor Activity TDT ([14]; same, tumor doubling time): 11.7 ± 1.2 days
elimination of parasites ([15]; 48 hrs, up to 200 nM Example 7, 20 nM Example 13, 3 nM Example 15): completely eliminated T. brucei
IC50 ([15]; Trypanosoma brucei, read-out: IC50 (concentration that killed 50% of the parasites), bloodstream stage, 48 hrs of culture): 6 to 11 nM

CC(C)NCCn1c2ccc3c(c2c2c4c(ccc21)C(=O)CC4)CCC3=O [Example 17]
effectiveness against bacteria compared with the ampicillin control [16]: more effective
antibacterial effect [9]: antibacterial effect
EC50 [1, 17]: 0.04 µM
antibacterial effect [11]: antibacterial effect

CCNCCCn1c2ccc3c(c2c2c4c(ccc21)C(=O)CC4)CCC3=O.Cl [Example 18]
antibacterial effect [9]: antibacterial effect
EC50 [1, 17]: 0.09 µM
EC50 ([1]; Table 3, test compounds of the malaria experiment, read-out: EC50, μM (p53 activation assay)): 0.09 µM
antibacterial effect [11]: antibacterial effect
anti-malarial activity, parasitemia reduction [2]: anti-malarial activity comparable to quinacrine
